Source: patent US20260000678A1, “PHARMACEUTICAL COMPOSITION FOR PREVENTING, SUPPRESSING, OR TREATING SYMPTOM ASSOCIATED WITH PSEUDO-ALLERGIC REACTION” (Takasaki University of Health and Welfare, priority 2022, published 2026)
“Also recorded” adds a separate entry of the source.

Tests used:
[1] = tested on: PMCs; experiment: Degranulation of PMCs (β-hexosaminidase release rate); format: cell-based, mouse; settings: for Effect on IgE receptor stimulation or degranulation by C48/80: α,β-methyl mATP 10 uM, ADP 100 uM, UDP-Glucose 100 uM; for Degranulation of PMCs by the stimulant alone: 37° C. 10 minutes, DNP-HSA on IgE-sensitized PMCs, BzATP 10 uM
[2] = tested on: PMCs derived from P2X4 receptor-deficient mice; experiment: Degranulation of PMCs derived from P2X4 receptor-deficient mice; format: cell-based, mouse; settings: DNP-HSA or C48/80 stimulation with 100 uM ATP
Experimental: The abdominal cavity of wild-type C57BL/6 mice (7- to 8-week-old, male; n=4) or P2X4 receptor-deficient mice (7- to 8-week-old, male; n=4) was washed with 4 mL of RPMI1640 medium to prepare peritoneal cells. The cells were cultured in RPMI1640 medium containing 10% FBS, penicillin (100 unit/ml), streptomycin (100 μg/ml), recombinant mouse IL-3 (10 ng/ml, manufactured by PeproTech, Inc.), and 10 ng/mL of SCF (manufactured by PeproTech, Inc.) for 14 days to be used for the experiment. 95% or more of the prepared PMCs were double positive for c-KIT and FcεRI (FACSCant II, manufactured by BD Biosciences).
Anti-DNP-IgE antibody (clone: SPE-7, manufactured by Sigma-Aldrich, Inc.) was added to a culture solution containing PMCs derived from wild-type C57BL/6 mice or P2X4 receptor-deficient mice so that the concentration reached 50 ng/ml, and the PMCs were sensitized overnight. The PMCs were washed with PBS(−) and suspended in Krebs Ringer-HEPES Buffer containing 0.1% BSA (NaCl 130 mM, KCl 4.7 mM, NaHCO3 4.0 mM, KH2P4 1.2 mM, Glucose 11.5 mM, HEPES 10 mM, and CaCl2—H2O 1.8 mM) so that the concentration reached 1×10^6 cell/mL. […] 50 mM carbonate buffer (pH 10.0, 100 uL) was added to stop the enzyme reaction of β-hexosaminidase, and absorbance was measured at 405/655 nm using an absorbance microplate reader Sunrise (manufactured by Tecan Trading AG). […]

[3] = tested on: wild-type C57BL/6 mice; experiment: Passive systemic anaphylaxis caused by C48/80 (rectal temperature); format: in vivo, mouse; settings: 10 mg/kg intraperitoneally 15 minutes before C48/80 (50 μg i.v.); vs vehicle; listed as Compound B
Experimental: Wild-type C57BL/6 mice (9-week-old, male; n=8) and P2X4 receptor-deficient mice (10-week-old, male; n=7) were intravenously administered with 100 μL of physiological saline containing 50 μg of C48/80 (manufactured by Sigma-Aldrich, Inc.). Thereafter, the rectal temperatures of the mice were measured with a digital thermometer (manufactured by Physitemp Instruments, LLC.) every 5 minutes for a period of 60 minutes.
Compound B, a P2X4 receptor antagonist, was used after being dissolved in physiological saline at a concentration of 10 mg/ml. In a passive systemic anaphylaxis test using the wild-type C57BL/6 mice of Example 1-1), 10 mg/kg of Compound B or a solvent thereof (vehicle) was intraperitoneally administered 15 minutes before administration of C48/80. […] From this, it was considered that the symptom of the pseudo-allergy can be reduced by the P2X4 receptor antagonist.

[4] = dose dependency, DNP-HSA 0, 1, 5, or 10 μg/mL
[5] = wild-type PMCs, C48/80 10 uM, Substance P 100 uM, PAMP-12 10 uM, vancomycin 1 mM

## Nc1ncnc2c1ncn2[C@@H]1O[C@H](COP(=O)(O)OP(=O)(O)O)[C@@H](O)[C@H]1O [ADP]
[1]
  Effect on IgE receptor stimulation or degranulation by C48/80: did not affect

## Nc1ncnc2c1ncn2[C@@H]1O[C@H](COP(=O)(O)OP(=O)(O)OP(=O)(O)O)[C@@H](O)[C@H]1O [ATP]
[1]; 100 uM ATP, C48/80 10 uM, wild-type PMCs
  Effect of ATP on degranulation of PMCs by MrgprB2 stimulation with C48/80: significantly promoted
[1]; 100 uM ATP, IgE (SPE-7)-sensitized wild-type PMCs
  Effect of ATP on degranulation of PMCs by IgE receptor stimulation (DNP-HSA): significantly promoted
[1]; C48/80 0, 1, 10, or 100 uM
  Effect of ATP on dose dependency of degranulation by MrgprB2 stimulation with C48/80: enhanced the maximum response; also recorded: significantly increased the degree of degranulation
[1]; Substance P 100 uM, PAMP-12 10 uM, vancomycin 1 mM
  Effect of ATP on degranulation of PMCs by Substance P, PAMP-12 and vancomycin: promoted; also recorded: enhanced
[1]; [4]
  Effect of ATP on degranulation by IgE receptor stimulation, DNP-HSA at a high concentration: not observed
  Effect of ATP on degranulation by IgE receptor stimulation, DNP-HSA at a low concentration: promoted degranulation
[2]
  Effect of promoting degranulation of ATP in P2X4 receptor-deficient PMCs: not observed

## O=C1CC(=O)N(c2ccc(NC(=O)c3ccccc3I)cc2)c2ccc3ccccc3c2N1 [Compound B48, 5-[4-(2-iodobenzoylamino)phenyl]-1H-naphtho[1,2-b][1,4]diazepine-2,4(3H,5H)-dione]
[1]; Compound at 10 uM before the degranulation reaction, C48/80 10 uM with or without 100 uM ATP, vs vehicle, listed as Compound B
  Suppression of the promotion of degranulation of PMCs by ATP: significantly suppressed
[3]
  Suppression of the decrease in rectal temperature by C48/80: significantly suppressed

## CN[C@H](CC(C)C)C(=O)N[C@H]1C(=O)N[C@@H](CC(N)=O)C(=O)N[C@H]2C(=O)N[C@H]3C(=O)N[C@H](C(=O)N[C@H](C(=O)O)c4cc(O)cc(O)c4-c4cc3ccc4O)[C@H](O)c3ccc(c(Cl)c3)Oc3cc2cc(c3O[C@@H]2O[C@H](CO)[C@@H](O)[C@H](O)[C@H]2O[C@H]2C[C@](C)(N)[C@H](O)[C@H](C)O2)Oc2ccc(cc2Cl)[C@H]1O [vancomycin]
[1]; [5]
  Degranulation of PMCs by the stimulant alone: induced

## Nc1ncnc2c1ncn2[C@@H]1O[C@H](COP(=O)(O)CP(=O)(O)OP(=O)(O)O)[C@@H](O)[C@H]1O [α,β-methyl mATP]
[1]
  Effect on IgE receptor stimulation or degranulation by C48/80: did not affect

## BzATP
[1]; [5]
  Degranulation of PMCs by the stimulant alone: induced degranulation

## Proadrenomedullin N-terminal 20 peptide [PAMP-12]
[1]; [5]
  Degranulation of PMCs by the stimulant alone: induced

## Substance P
[1]; [5]
  Degranulation of PMCs by the stimulant alone: induced
